Molecular target: Complement C3 (Homo sapiens, UniProt P01024)
Assay: Inhibition of complement C3

Complement C3, sequence (P01024 23-667 limits assumed): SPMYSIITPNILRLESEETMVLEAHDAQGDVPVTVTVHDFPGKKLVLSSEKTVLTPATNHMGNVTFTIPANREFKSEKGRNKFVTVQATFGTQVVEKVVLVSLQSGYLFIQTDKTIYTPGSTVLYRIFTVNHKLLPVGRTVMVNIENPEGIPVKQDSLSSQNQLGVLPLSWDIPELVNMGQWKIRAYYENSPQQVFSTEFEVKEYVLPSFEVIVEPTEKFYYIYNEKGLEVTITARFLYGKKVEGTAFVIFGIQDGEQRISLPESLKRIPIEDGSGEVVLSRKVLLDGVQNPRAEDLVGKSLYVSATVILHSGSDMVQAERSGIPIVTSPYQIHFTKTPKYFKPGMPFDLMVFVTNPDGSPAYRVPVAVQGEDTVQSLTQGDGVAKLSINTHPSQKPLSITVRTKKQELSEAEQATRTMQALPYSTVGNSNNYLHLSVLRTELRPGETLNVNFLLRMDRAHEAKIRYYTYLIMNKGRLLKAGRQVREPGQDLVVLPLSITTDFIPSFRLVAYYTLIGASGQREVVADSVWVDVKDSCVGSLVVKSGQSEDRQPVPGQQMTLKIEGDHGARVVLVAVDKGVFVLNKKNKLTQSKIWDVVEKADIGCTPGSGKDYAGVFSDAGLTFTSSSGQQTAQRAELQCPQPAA
Complement C3, sequence (P01024 672-1663 limits assumed): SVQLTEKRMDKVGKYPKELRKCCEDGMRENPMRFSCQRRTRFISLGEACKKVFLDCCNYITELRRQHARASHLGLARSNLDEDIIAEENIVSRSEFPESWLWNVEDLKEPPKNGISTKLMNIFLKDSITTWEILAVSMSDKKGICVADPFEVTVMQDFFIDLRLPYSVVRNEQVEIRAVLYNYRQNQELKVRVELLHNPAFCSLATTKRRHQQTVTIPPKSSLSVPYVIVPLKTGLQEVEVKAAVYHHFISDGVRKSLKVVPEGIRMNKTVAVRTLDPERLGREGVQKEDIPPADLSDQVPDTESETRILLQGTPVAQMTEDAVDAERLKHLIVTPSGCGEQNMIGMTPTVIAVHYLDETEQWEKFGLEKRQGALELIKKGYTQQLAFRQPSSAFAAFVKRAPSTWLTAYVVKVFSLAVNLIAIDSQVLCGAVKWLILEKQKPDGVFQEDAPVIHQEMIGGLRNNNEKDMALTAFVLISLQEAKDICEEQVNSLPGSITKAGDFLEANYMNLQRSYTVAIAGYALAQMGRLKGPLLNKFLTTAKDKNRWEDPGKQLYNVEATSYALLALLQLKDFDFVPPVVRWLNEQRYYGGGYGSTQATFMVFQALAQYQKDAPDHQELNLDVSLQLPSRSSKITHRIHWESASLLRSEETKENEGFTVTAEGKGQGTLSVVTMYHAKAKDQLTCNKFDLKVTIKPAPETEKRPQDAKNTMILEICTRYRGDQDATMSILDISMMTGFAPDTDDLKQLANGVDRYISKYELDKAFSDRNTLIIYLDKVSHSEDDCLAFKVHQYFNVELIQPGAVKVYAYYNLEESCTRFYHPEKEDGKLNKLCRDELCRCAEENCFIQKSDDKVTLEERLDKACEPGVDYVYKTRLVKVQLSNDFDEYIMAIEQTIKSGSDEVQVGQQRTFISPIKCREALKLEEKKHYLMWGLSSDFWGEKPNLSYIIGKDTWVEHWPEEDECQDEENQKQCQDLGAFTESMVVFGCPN

IC50: 545 nM
Structure (SMILES): CC[C@H](C)[C@H](NC(C)=O)C(=O)N[C@H]1CSSC[C@@H](C(=O)N[C@H](C(N)=O)[C@@H](C)O)NC(=O)[C@H](CCCNC(=N)N)NC(=O)[C@H](Cc2c[nH]cn2)NC(=O)[C@H](C)NC(=O)CNC(=O)[C@H](Cc2c[nH]c3ccccc23)NC(=O)[C@H](CC(=O)O)NC(=O)[C@H](CCC(N)=O)NC(=O)[C@H](Cc2ccc3ccccc3c2)NC(=O)[C@H](C(C)C)NC1=O

Reference: ChEMBL document CHEMBL1137416, “Hydrophobic effect and hydrogen bonds account for the improved activity of a complement inhibitor, compstatin” (J Med Chem, 2006)
